Measurements reported in patent US20060100431A1, “Biologically active compounds” (Amura Therapeutics Limited, priority 2002, published 2006).

What was measured:
Assay type in all cases: biochemical
Wild-type cruzipain = Wild-type cruzipain (Trypanosoma cruzi, UniProt P25779); experiment: Trypanosoma cruzi cruzipain peptidase activity assay (Ki); conditions: read-out: Ki, inhibitors of cruzain and cruzipains
In short: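 Native cruzipain from T. cruzi Dm28 epimastigotes, 2.5 nM, in 100 mM sodium phosphate pH 6.75 with 1 mM EDTA and 10 mM L-cysteine, 25 °C, DMSO <1%. Rates taken from continuous fluorogenic substrate read; Ki by regression assuming reversible pure-competitive inhibition.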

human cathepsin B = biological target: T1, human cathepsin B (Homo sapiens, UniProt P07858); experiment: Cathepsin B peptidase activity assay (Ki); conditions: read-out: Ki, inhibitors of cathepsin B
T1 construct: purchased CN Biosciences
In short: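 Buffer: 10 mM bis-tris-propane pH 6.5, 1 mM EDTA, 5 mM 2-mercaptoethanol, 1 mM CaCl2; DMSO <1%. Ki assumed reversible, pure-competitive, from Ki^app=Ki(1+[So]/KM^app) by non-linear regression.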

Bovine cathepsin S = biological target: T2, Bovine cathepsin S (Bos taurus, UniProt P25326); experiment: Cathepsin S peptidase activity assay, bovine enzyme (Ki); conditions: species of cathepsin S not given; read-out: Ki, inhibitors of cathepsin S
T2 construct: purchased CN Biosciences
T2 sequence (P25326 115-331): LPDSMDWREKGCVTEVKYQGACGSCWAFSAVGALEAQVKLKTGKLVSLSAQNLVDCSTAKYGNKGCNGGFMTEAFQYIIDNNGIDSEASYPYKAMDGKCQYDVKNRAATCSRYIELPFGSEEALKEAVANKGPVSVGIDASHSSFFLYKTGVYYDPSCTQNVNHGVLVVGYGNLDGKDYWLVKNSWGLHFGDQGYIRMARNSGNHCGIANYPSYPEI
Protocol: Unless otherwise stated, all general chemicals and biochemicals were purchased from either the Sigma Chemical Company, Poole, Dorset, U.K or from Fisher Scientific UK, Loughborough, Leicestershire, U.K. Absorbance assays were carried out in flat-bottomed 96-well plates (Spectra; Greiner Bio-One Ltd., Stonehouse, Gloucestershire, U.K.) using a SpectraMax PLUS384 plate reader (Molecular Devices, Crawley, U.K.). Fluorescence high throughput assays were carried out in either 384-well microtitre plates (Corning Costar 3705 plates, Fisher Scientific) or 96-well ‘U’ bottomed Microfluor W1 microtitre plates (Thermo Labsystems, Ashford, Middlesex, U.K.). Fluorescence assays were monitored using a SpectraMax Gemini fluorescence plate reader (Molecular Devices). For substrates employing either a 7-amino-4-methylcoumarin (AMC) or a 7-amino-4-trifluoromethylcoumarin (AFC) fluorophore, assays were monitored at an excitation wavelength of 365 nm and an emission wavelength of 450 nm and the fluorescence plate reader calibrated with AMC. For substrates employing a 3-amino-benzoyl (Abz) fluorophore, assays were monitored at an excitation wavelength of 310 nm and an emission wavelength of 445 nm; the fluorescence plate reader calibrated with 3-amino-benzamide (Fluka). Unless otherwise indicated, all the peptidase substrates were purchased from Bachem UK, St Helens, Merseyside, UK. Substrates utilizing fluorescence resonance energy transfer methodology (i.e. FRET-based substrates) were synthesized at Incenta Limited using published methods (Atherton & Sheppard, Solid Phase Peptide Synthesis, IRL Press, Oxford, U.K, 1989) and employed Abz (2-aminobenzoyl) as the fluorescence donor and 3-nitro-tyrosine [Tyr(NO2)] as the fluorescence quencher (Meldal, M. and Breddam, K., Anal. Biochem, 195, 141-147, 1991). Hydroxyethylpiperazine ethanesulfonate (HEPES), tris-hydroxylmethyl aminomethane (tris) base, bis-tris-propane and all the biological detergents (e.g. CHAPS, zwittergents, etc.) were purchased from CN Biosciences UK, Beeston, Nottinghamshire, U.K. Glycerol was purchased from Amersham Pharmacia Biotech, Little Chalfont, Buckinghamshire, U.K. Stock solutions of substrate or inhibitor were made up to 10 mM in 100% dimethylsulfoxide (DMSO) (Rathburns, Glasgow, U.K.) and diluted as appropriately required. In all cases the DMSO concentration in the assays was maintained at less than 1% (vol./vol.).
Assay protocols were based on literature precedent (Table 4; Barrett, A. J., Rawlings, N. D. and Woessner, J. F., 1998, Handbook of Proteolytic Enzymes, Academic Press, London and references therein) and modified as required to suit local assay protocols. Enzyme was added as required to initiate the reaction and the activity, as judged by the change in fluorescence upon conversion of substrate to product, was monitored over time. All assays were carried out at 25±1° C.
Bovine cathepsin S, human cathepsin L, human cathepsin H and human cathepsin B were obtained from CN Biosciences. Recombinant human cathepsin S, human cathepsin K and human cathepsin X were obtained from Dr. Boris Turk (Josef Stefan Institute, Ljubljana, Slovenia). Unless otherwise stated, all peptidase activity assays were carried out in 10 mM bis-tris-propane (BTP), pH 6.5 containing 1 mM EDTA, 5 mM 2-mercaptoethanol and 1 mM CaCl2. Human cathepsin H activity assays were carried out in 10 mM BTP pH 6.5, 142 mM NaCl2, 1 mM CaCl2, 1 mM EDTA, 1 mM DTT, 0.035 mM Zwittergent 3-16. Human cathepsin K assays were carried out in 100 mM sodium acetate; pH 5.5 containing 20 mM L-cysteine and 1 mM EDTA (Bossard, M. J., et. al., J. Biol. Chem., 21, 12517-12524, 1996). Human cathepsin X assays were carried out in 100 mM sodium acetate; pH 5.5 containing 20 mM L-cysteine; 0.05% (w/v) Brij 35 and 1 mM EDTA (Santamaria, I., et. al., J. Biol. Chem., 273, 16816-16823, 1998; Klemencic, J, et al., Eur. J. Biochem., 267, 5404-5412, 2000).

CPB2.8ΔCTE = biological target: T3, CPB2.8ΔCTE (Leishmania mexicana, UniProt P36400); experiment: Leishmania mexicana cysteine protease B (CPB) peptidase activity assay (Ki); conditions: Ki, inhibitors of Leismania mexicana CPB protease
T3 construct: Wild-type recombinant CPB without the C-terminal extention (i.e. CPB2.8ΔCTE); Dr. Jeremy Mottram (Wellcome Centre for Molecular Parasitology, University of Glasgow)
T3 sequence (P36400 126-343, stated change not applied): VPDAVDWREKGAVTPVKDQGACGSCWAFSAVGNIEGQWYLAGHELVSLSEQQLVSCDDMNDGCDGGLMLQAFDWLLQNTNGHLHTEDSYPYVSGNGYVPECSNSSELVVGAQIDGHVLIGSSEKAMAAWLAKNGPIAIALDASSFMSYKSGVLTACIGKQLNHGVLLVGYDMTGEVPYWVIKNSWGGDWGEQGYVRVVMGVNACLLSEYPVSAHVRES
In short: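 Apparent Ki was derived by regression of activity against inhibitor concentration, assuming pure-competitive reversible binding. Reaction: 0.25 nM CPB lacking the C-terminal extension, pH 5.5 acetate buffer (1 mM EDTA, 200 mM NaCl, 10 mM DTT), 25 °C, followed by continuous substrate fluorescence.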

human cathepsin L = biological target: T4, human cathepsin L (Homo sapiens, UniProt P07711); experiment: Cathepsin L peptidase activity assay (Ki); conditions: read-out: Ki, inhibitors of cathepsin L
T4 construct: purchased CN Biosciences
T4 sequence (P07711 114-333): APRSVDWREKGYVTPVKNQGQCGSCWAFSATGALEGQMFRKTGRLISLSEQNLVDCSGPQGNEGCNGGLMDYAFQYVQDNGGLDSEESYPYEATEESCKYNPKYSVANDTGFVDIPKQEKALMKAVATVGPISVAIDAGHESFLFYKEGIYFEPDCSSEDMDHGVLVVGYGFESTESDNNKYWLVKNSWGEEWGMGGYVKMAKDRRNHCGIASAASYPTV
In short: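 Run at 25±1° C with DMSO under 1%: buffer was 10 mM BTP pH 6.5 containing 1 mM EDTA, 1 mM CaCl2 and 5 mM 2-mercaptoethanol. Enzyme (1 nM cathepsin L) was added last to start hydrolysis of Ac-Phe-Arg-AMC held at KM^app (~20 μM), followed kinetically by fluorescence at 365/450 nm.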

Measured: Ki

Chain of Wild-type cruzipain (P25779 whole entry): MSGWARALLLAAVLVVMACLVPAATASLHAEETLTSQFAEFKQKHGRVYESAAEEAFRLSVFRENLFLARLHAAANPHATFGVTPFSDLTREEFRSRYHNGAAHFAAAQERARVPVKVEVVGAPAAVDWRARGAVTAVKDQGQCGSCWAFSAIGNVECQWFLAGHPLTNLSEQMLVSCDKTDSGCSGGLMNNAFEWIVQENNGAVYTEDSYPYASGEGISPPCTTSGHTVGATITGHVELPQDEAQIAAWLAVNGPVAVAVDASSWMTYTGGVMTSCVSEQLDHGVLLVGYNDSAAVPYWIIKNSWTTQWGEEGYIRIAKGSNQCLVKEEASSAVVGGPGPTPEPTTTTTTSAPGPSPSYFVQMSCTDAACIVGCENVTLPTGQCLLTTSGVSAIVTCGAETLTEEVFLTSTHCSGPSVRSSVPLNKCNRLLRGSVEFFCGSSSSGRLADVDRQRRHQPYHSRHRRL

CC(C)C[C@H](NC(=O)c1ccc(N)cc1)C(=O)N1CC[C@@H]2[C@H]1C(=O)CN2C(=O)c1cccc(S(C)(=O)=O)c1 [Example 61, (3aR,6aS)-4-Amino-N-{(1S)-1-[4-(3-methanesulfonyl-benzoyl)-6-oxo-hexahydro-pyrrolo[3,2-b]pyrrole-1-carbonyl]-3-methyl-butyl}-benzamide]
< 5 µM: Wild-type cruzipain | human cathepsin B | Bovine cathepsin S

CC(C)C[C@H](NC(=O)c1ccc(N(C)C)cc1)C(=O)N1CC[C@@H]2[C@H]1C(=O)CN2C(=O)[C@@H]1CCCN1C(=O)OCc1ccccc1 [Example 154, (3aS,6aR)-(2S)-2-{4-[(2S)-2-(4-Dimethylamino-benzoylamino)-4-methyl-pentanoyl]-3-oxo-hexahydro-pyrrolo[3,2-b]pyrrole-1-carbonyl}-pyrrolidine-1-carboxylic acid benzyl ester]
not listed: human cathepsin B
< 5 µM: all other assays above

CC[C@H](NC(=O)OCc1ccccc1)C(=O)N1CC(=O)[C@@H]2[C@H]1CCN2C(=O)[C@H](CC(C)C)NC(=O)c1ccc(N(C)C)cc1 [Example 159, (3aS,6aR)-((1S)-1-{4-[(2S)-2-(4-Dimethylamino-benzoylamino)-4-methyl-pentanoyl]-3-oxo-hexahydro-pyrrolo[3,2-b]pyrrole-1-carbonyl}-propyl)-carbamic acid benzyl ester]
not listed: human cathepsin B
< 5 µM: all other assays above

CC[C@H](C)[C@H](NC(=O)OCc1ccccc1)C(=O)N1CC(=O)[C@@H]2[C@H]1CCN2C(=O)[C@H](CC(C)C)NC(=O)c1ccc(N(C)C)cc1 [Example 161, (3 aS,6aR)-((1S,2S)-1-{4-[(2S)-2-(4-Dimethylamino-benzoylamino)-4-methyl-pentanoyl]-3-oxo-hexahydro-pyrrolo[3,2-b]pyrrole-1-carbonyl}-2-methyl-butyl)-carbamic acid benzyl ester]
not listed: human cathepsin B
< 5 µM: all other assays above

CC(C)C[C@H](NC(=O)c1ccc(N(C)C)cc1)C(=O)N1CC[C@@H]2[C@H]1C(=O)CN2C(=O)c1ccsc1 [Example 164, (3aR,6aS)-4-Dimethylamino-N-{(1S)-3-methyl-1-[6-oxo-4-(thiophene-3-carbonyl)-hexahydro-pyrrolo[3,2-b]pyrrole-1-carbonyl]-butyl}-benzamide]
not listed: human cathepsin B
< 5 µM: all other assays above

Cc1ccc(C(=O)N[C@@H](CC(C)C)C(=O)N2CC[C@@H]3[C@H]2C(=O)CN3C(=O)c2ccccc2)cc1 [Example 170]
not listed: human cathepsin B
< 5 µM: all other assays above

CCc1ccc(C(=O)N[C@@H](CC(C)C)C(=O)N2CC[C@@H]3[C@H]2C(=O)CN3C(=O)c2ccccc2)cc1 [Example 171, (3aR,6aS)-N-[(1S)-1-(4-Benzoyl-6-oxo-hexahydro-pyrrolo[3,2-b]pyrrole-1-carbonyl)-3-methyl-butyl]-4-ethyl-benzamide]
not listed: human cathepsin B
< 5 µM: all other assays above

CC(C)C[C@H](NC(=O)c1ccc(C(C)C)cc1)C(=O)N1CC[C@@H]2[C@H]1C(=O)CN2C(=O)c1ccccc1 [Example 172, (3aR,6aS)-N-[(1S)-1-(4-Benzoyl-6-oxo-hexahydro-pyrrolo[3,2-b]pyrrole-1-carbonyl)-3-methyl-butyl]-4-isopropyl-benzamide]
not listed: human cathepsin B
< 5 µM: all other assays above

CC(C)C[C@H](NC(=O)c1ccccc1)C(=O)N1CC[C@@H]2[C@H]1C(=O)CN2C(=O)c1ccccc1 [Example 174, (3aR,6aS)-N-[(1S)-1-(4-Benzoyl-6-oxo-hexahydro-pyrrolo[3,2-b]pyrrole-1-carbonyl)-3-methyl-butyl]-benzamide]
not listed: human cathepsin B
< 5 µM: all other assays above

CC(C)C[C@H](NC(=O)c1cccc(CN)c1)C(=O)N1CC[C@@H]2[C@H]1C(=O)CN2C(=O)c1ccccc1S(C)(=O)=O [Example 185, (3aR,6aS)-3-Aminomethyl-N-{(1S)-1-[4-(2-methanesulfonyl-benzoyl)-6-oxo-hexahydro-pyrrolo[3,2-b]pyrrole-1-carbonyl]-3-methyl-butyl}-benzamide]
not listed: human cathepsin B
< 5 µM: all other assays above

CC(C)C[C@H](NC(=O)c1ccc(N2CCCC2)cc1)C(=O)N1CC[C@@H]2[C@H]1C(=O)CN2C(=O)c1ccccc1 [Example 193, (3aR,6aS)-N-[(1S)-1-(4-Benzoyl-6-oxo-hexahydro-pyrrolo[3,2-b]pyrrole-1-carbonyl)-3-methyl-butyl]-4-pyrrolidin-1-yl-benzamide]
not listed: human cathepsin B
< 5 µM: all other assays above

CCC[C@H](NC(C)=O)C(=O)N1CC(=O)[C@@H]2[C@H]1CCN2C(=O)[C@H](CC(C)C)NC(=O)c1ccc(N(C)C)cc1 [Example 245, (3aR,6aS)-N-{(1S)-1-[4-((2S)-2-Acetylamino-pentanoyl)-6-oxo-hexahydro-pyrrolo[3,2-b]pyrrole-1-carbonyl]-3-methyl-butyl}-4-dimethylamino-benzamide]
not listed: human cathepsin B
< 5 µM: all other assays above

O=C(N[C@@H](Cc1ccc(O)cc1)C(=O)N1CC[C@@H]2[C@H]1C(=O)CN2C(=O)c1ccccc1)c1cccc(Br)c1 [Example 298, (3aR,6aS)-N-[(1S)-2-(4-Benzoyl-6-oxo-hexahydro-pyrrolo[3,2-b]pyrrol-1-yl)-1-(4-hydroxy-benzyl)-2-oxo-ethyl]-3-bromo-benzamide]
< 5 µM: Wild-type cruzipain | human cathepsin B | Bovine cathepsin S

Nc1ccc(C(=O)N2CC(=O)[C@@H]3[C@H]2CCN3C(=O)[C@H](Cc2ccc(O)cc2)NC(=O)c2cccc(Br)c2)cc1 [Example 310, (3aR,6aS)-N-[(1S)-2-[4-(4-Amino-benzoyl)-6-oxo-hexahydro-pyrrolo[3,2-b]pyrrole-1-yl]-1-(4-hydroxy-benzyl)-2-oxo-ethyl]-3-bromo-benzamide]
< 5 µM: human cathepsin B | Bovine cathepsin S
